Patent US20260234115A1, “LIPID COMPOUNDS, COMPOSITIONS, AND USES THEREOF” (Liberate Bio, Inc., priority 2023, published 2026)
Marks after values point to notes of the source that are not given here.

Tested on: mouse organs
Test: In vivo activity screening in mice: organ mean total flux (p/s) of luciferase activity after injection of F2 LNP pools (Table 6, FIG. 7A-7C)
Settings: luciferase mRNA
Summary of the method: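 C57BL/6J mice given one tail-vein injection of pooled Formulation F2 LNPs carrying firefly luciferase mRNA (0.25-3 mg/kg) in PBS. At 4-6 h, s.c. D-luciferin given; organs imaged ex vivo by IVIS within 10-15 min, after saline cardiac perfusion. Mean total flux (p/s) per organ ROI.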

## CCCCCCC(CCC(=O)OCC(COC(=O)CCCCCCOC(=O)C(CCCC)CCCCCC)(COC(=O)CCCCCCOC(=O)C(CCCC)CCCCCC)COC(=O)CC12CC3CC(CC(C3)C1)C2)OC(=O)NCCN1CCCC1 (stereo not drawn) [Compound 57, [7-[2-[[2-(1-adamantyl)acetyl]oxymethyl]-2-[7-(2-butyloctanoyloxy)heptanoyloxymethyl]-3-[4-(2-pyrrolidin-1-ylethylcarbamoyloxy)decanoyloxy]propoxy]-7-oxo-heptyl]2-butyloctanoate]
Mouse 3, dose 1.0 mg/kg
  Organ Mean Total Flux Femur: 7.4 p/s (×10^6)
  Organ Mean Total Flux Heart: 16.1 p/s (×10^6)
  Organ Mean Total Flux Kidney: 11.4 p/s (×10^6)
  Organ Mean Total Flux Liver: 25033 p/s (×10^6)
  Organ Mean Total Flux Lung: 71.8 p/s (×10^6)
  Organ Mean Total Flux Muscle: 16.4 p/s (×10^6)
  Organ Mean Total Flux Pancreas: 2.7 p/s (×10^6)
  Organ Mean Total Flux Spleen: 6.5 p/s (×10^6)

## CCCCCCC(CCC(=O)OCC(COC(=O)CCCCCOC(=O)C(CCCC)CCCCCC)(COC(=O)CCCCCOC(=O)C(CCCC)CCCCCC)COC(=O)CC12CC3CC(CC(C3)C1)C2)OC(=O)NCCN1CCCC1 (stereo not drawn) [Compound 58, [6-[2-[[2-(1-adamantyl)acetyl]oxymethyl]-2-[6-(2-butyloctanoyloxy)hexanoyloxymethyl]-3-[4-(2-pyrolidin-1-ylethylcarbamoyloxy)decanoyloxy]propoxy]-6-oxo-hexyl]2-butyloctanoate]
Mouse 3, dose 1.0 mg/kg
  Organ Mean Total Flux Femur: 11.5 p/s (×10^6)
  Organ Mean Total Flux Heart: 2.8 p/s (×10^6)
  Organ Mean Total Flux Kidney: 2.6 p/s (×10^6)
  Organ Mean Total Flux Liver: 1493 p/s (×10^6)
  Organ Mean Total Flux Lung: 41.0 p/s (×10^6)
  Organ Mean Total Flux Muscle: 29.1 p/s (×10^6)
  Organ Mean Total Flux Pancreas: 9.2 p/s (×10^6)
  Organ Mean Total Flux Spleen: 10.5 p/s (×10^6)

## CCCCCCC(CCC(=O)OCC(COC(=O)CCCCOC(=O)C(CCCC)CCCCCC)(COC(=O)CCCCOC(=O)C(CCCC)CCCCCC)COC(=O)CC12CC3CC(CC(C3)C1)C2)OC(=O)NCCN1CCCC1 (stereo not drawn) [Compound 59, [5-[2-[[2-(1-adamantyl)acetyl]oxymethyl]-2-[5-(2-butyloctanoyloxy)pentanoyloxymethyl]-3-[4-(2-pyrrolidin-1-ylethylcarbamoyloxy)decanoyloxy]propoxy]-5-oxo-pentyl]2-butyloctanoate]
Mouse 13, dose 0.5 mg/kg
  Organ Mean Total Flux Femur: 2.6 p/s (×10^6)
  Organ Mean Total Flux Heart: 2.6 p/s (×10^6)
  Organ Mean Total Flux Kidney: 1.5 p/s (×10^6)
  Organ Mean Total Flux Liver: 1967 p/s (×10^6)
  Organ Mean Total Flux Lung: 9.9 p/s (×10^6)
  Organ Mean Total Flux Muscle: 4.7 p/s (×10^6)
  Organ Mean Total Flux Pancreas: 0.7 p/s (×10^6)
  Organ Mean Total Flux Spleen: 2.8 p/s (×10^6)

## CCCCC/C=C\CCOC(=O)CCCCCC(=O)OCC(COC(=O)CCCCC)(COC(=O)CCCCCC(=O)OCC/C=C\CCCCC)COC(=O)CCC(CCCCCC)OC(=O)NCCN1CCCC1 (stereo not drawn) [Compound 60]
Mouse 2, dose 1.0 mg/kg
  Organ Mean Total Flux Femur: 56.4 p/s (×10^6)
  Organ Mean Total Flux Heart: 2.9 p/s (×10^6)
  Organ Mean Total Flux Kidney: 5.5 p/s (×10^6)
  Organ Mean Total Flux Liver: 1118 p/s (×10^6)
  Organ Mean Total Flux Lung: 72.8 p/s (×10^6)
  Organ Mean Total Flux Muscle: 28.7 p/s (×10^6)
  Organ Mean Total Flux Pancreas: 86.2 p/s (×10^6)
  Organ Mean Total Flux Spleen: 367.7 p/s (×10^6)
Mouse 14, dose 0.5 mg/kg
  Organ Mean Total Flux Femur: 11.4 p/s (×10^6)
  Organ Mean Total Flux Heart: 2.5 p/s (×10^6)
  Organ Mean Total Flux Kidney: 4.1 p/s (×10^6)
  Organ Mean Total Flux Liver: 448.0 p/s (×10^6)
  Organ Mean Total Flux Lung: 20.5 p/s (×10^6)
  Organ Mean Total Flux Muscle: 14.9 p/s (×10^6)
  Organ Mean Total Flux Pancreas: 18.0 p/s (×10^6)
  Organ Mean Total Flux Spleen: 42.7 p/s (×10^6)

## CCCCC/C=C\CCOC(=O)CCCCC(=O)OCC(COC(=O)CCCCC(=O)OCC/C=C\CCCCC)(COC(=O)CCC(CCCC)CCOC(=O)NCCN1CCCC1)COC(=O)CC12CC3CC(CC(C3)C1)C2 (stereo not drawn) [Compound 61, O6-[2-[[2-(1-adamantyl)acetyl]oxymethyl]-2-[[6-[(Z)-non-3-enoxy]-6-oxo-hexanoyl]-oxymethyl]-3-[4-[2-(2-pyrrolidin-1-ylethylcarbamoyloxy)ethyl]octanoyloxy]propyl]O1-[(Z)-non-3-enyl]hexanedioate]
Mouse 2, dose 1.0 mg/kg
  Organ Mean Total Flux Femur: 34.2 p/s (×10^6)
  Organ Mean Total Flux Heart: 1.9 p/s (×10^6)
  Organ Mean Total Flux Kidney: 4.8 p/s (×10^6)
  Organ Mean Total Flux Liver: 542.7 p/s (×10^6)
  Organ Mean Total Flux Lung: 123.9 p/s (×10^6)
  Organ Mean Total Flux Muscle: 28.1 p/s (×10^6)
  Organ Mean Total Flux Pancreas: 28.8 p/s (×10^6)
  Organ Mean Total Flux Spleen: 85.1 p/s (×10^6)
Mouse 14, dose 0.5 mg/kg
  Organ Mean Total Flux Femur: 16.6 p/s (×10^6)
  Organ Mean Total Flux Heart: 1.0 p/s (×10^6)
  Organ Mean Total Flux Kidney: 5.0 p/s (×10^6)
  Organ Mean Total Flux Liver: 157.3 p/s (×10^6)
  Organ Mean Total Flux Lung: 33.8 p/s (×10^6)
  Organ Mean Total Flux Muscle: 11.1 p/s (×10^6)
  Organ Mean Total Flux Pancreas: 51.6 p/s (×10^6)
  Organ Mean Total Flux Spleen: 109.9 p/s (×10^6)

## CCCCC/C=C\CCOC(=O)CCCCC(=O)OCC(COC(=O)CCCCC(=O)OCC/C=C\CCCCC)(COC(=O)CCC(CCCCCCCC)OC(=O)NCCN1CCCC1)COC(=O)CC12CC3CC(CC(C3)C1)C2 (stereo not drawn) [Compound 66, O6-[2-[[2-(1-adamantyl)acetyl]oxymethyl]-2-[[6-[(Z)-non-3-enoxy]-6-oxohexanoyl]oxymethyl]-3-[4-(2-pyrrolidin-1-ylethylcarbamoyloxy)dodecanoyloxy]propyl]O1-[(Z)-non-3-enyl]hexanedioate]
Mouse 9, dose 0.5 mg/kg
  Organ Mean Total Flux Femur: 5.5 p/s (×10^6)
  Organ Mean Total Flux Heart: 1.3 p/s (×10^6)
  Organ Mean Total Flux Kidney: 1.8 p/s (×10^6)
  Organ Mean Total Flux Liver: 68.9 p/s (×10^6)
  Organ Mean Total Flux Lung: 14.1 p/s (×10^6)
  Organ Mean Total Flux Muscle: 11.3 p/s (×10^6)
  Organ Mean Total Flux Pancreas: 4.0 p/s (×10^6)
  Organ Mean Total Flux Spleen: 7.8 p/s (×10^6)

## CCCCC/C=C\CCOC(=O)CCCCC(=O)OCC(COC(=O)CCCCC(=O)OCC/C=C\CCCCC)(COC(=O)CCC(CCCCCC)OC(=O)NCCN1CCCC1)COC(=O)C12CCC(CC1)CC2 (stereo not drawn) [Compound 67, O6-[2-(bicyclo[2.2.2]octane-1-carbonyloxymethyl)-2-[[6-[(Z)-non-3-enoxy]-6-oxo-hexanoyl]-oxymethyl]-3-[4-(2-pyrrolidin-1-ylethylcarbamoyloxy)decanoyloxy]propyl]O1-[(Z)-non-3-enyl]hexanedioate]
Mouse 12, dose 0.5 mg/kg
  Organ Mean Total Flux Femur: 10.8 p/s (×10^6)
  Organ Mean Total Flux Heart: 0.4 p/s (×10^6)
  Organ Mean Total Flux Kidney: 1.9 p/s (×10^6)
  Organ Mean Total Flux Liver: 220.0 p/s (×10^6)
  Organ Mean Total Flux Lung: 11.8 p/s (×10^6)
  Organ Mean Total Flux Muscle: 22.8 p/s (×10^6)
  Organ Mean Total Flux Pancreas: 10.4 p/s (×10^6)
  Organ Mean Total Flux Spleen: 50.1 p/s (×10^6)

## CCCCC/C=C\CCOC(=O)CCCCC(=O)OCC(COC(=O)CCCCC(=O)OCC/C=C\CCCCC)(COC(=O)CCC(CCCCCC)OC(=O)NCCN1CCCC1)COC(=O)CC1CCC1 (stereo not drawn) [Compound 73, O6-[2-[(2-cyclobutylacetyl)oxymethyl]-2-[[6-[(Z)-non-3-enoxy]-6-oxo-hexanoyl]oxymethyl]-3-[4-(2-pyrrolidin-1-ylethylcarbamoyloxy)decanoyloxy]propyl]O1-[(Z)-non-3-enyl]hexanedioate]
Mouse 12, dose 0.5 mg/kg
  Organ Mean Total Flux Femur: 7.3 p/s (×10^6)
  Organ Mean Total Flux Heart: 0.5 p/s (×10^6)
  Organ Mean Total Flux Kidney: 1.7 p/s (×10^6)
  Organ Mean Total Flux Liver: 127.7 p/s (×10^6)
  Organ Mean Total Flux Lung: 10.6 p/s (×10^6)
  Organ Mean Total Flux Muscle: 6.8 p/s (×10^6)
  Organ Mean Total Flux Pancreas: 15.7 p/s (×10^6)
  Organ Mean Total Flux Spleen: 49.2 p/s (×10^6)

## CCCCC/C=C\CCOC(=O)CCCCC(=O)OCC(COC(=O)CCCCC(=O)OCC/C=C\CCCCC)(COC(=O)CCC(CCCCCC)OC(=O)NCCN1CCCC1)COC(=O)C1CC2C(C1)C2(F)F (stereo not drawn) [Compound 81, O6-[2-[(6,6-difluorobicyclo[3.1.0]hexane-3-carbonyl)oxymethyl]-2-[[6-[(Z)-non-3-enoxy]-6-oxo-hexanoyl]oxymethyl]-3-[4-(2-pyrrolidin-1-ylethylcarbamoyloxy)decanoyloxy]propyl]O1-[(Z)-non-3-enyl]hexanedioate]
Mouse 12, dose 0.5 mg/kg
  Organ Mean Total Flux Femur: 11.1 p/s (×10^6)
  Organ Mean Total Flux Heart: 1.2 p/s (×10^6)
  Organ Mean Total Flux Kidney: 4.0 p/s (×10^6)
  Organ Mean Total Flux Liver: 727.0 p/s (×10^6)
  Organ Mean Total Flux Lung: 12.1 p/s (×10^6)
  Organ Mean Total Flux Muscle: 5.7 p/s (×10^6)
  Organ Mean Total Flux Pancreas: 12.9 p/s (×10^6)
  Organ Mean Total Flux Spleen: 115.9 p/s (×10^6)

## CCCCC/C=C\CCOC(=O)CCCCC(=O)OCC(COC(=O)CCCCC(=O)OCC/C=C\CCCCC)(COC(=O)CCC(CCCCCC)OC(=O)NCCN1CCCC1)COC(=O)CC12CC(C1)C2 (stereo not drawn) [Compound 91, O6-[2-[[2-(1-bicyclo[1.1.1]pentanyl)acetyl]oxymethyl]-2-[[6-[(Z)-non-3-enoxy]-6-oxo-hexanoyl]oxymethyl]-3-[4-(2-pyrrolidin-1ylethylcarbamoyloxy)decanoyloxy]propyl]O1-[(Z)-non-3-enyl]hexanedioate]
Mouse 12, dose 0.5 mg/kg
  Organ Mean Total Flux Femur: 15.8 p/s (×10^6)
  Organ Mean Total Flux Heart: 2.6 p/s (×10^6)
  Organ Mean Total Flux Kidney: 12.3 p/s (×10^6)
  Organ Mean Total Flux Liver: 404.7 p/s (×10^6)
  Organ Mean Total Flux Lung: 26.3 p/s (×10^6)
  Organ Mean Total Flux Muscle: 7.8 p/s (×10^6)
  Organ Mean Total Flux Pancreas: 76.4 p/s (×10^6)
  Organ Mean Total Flux Spleen: 123.6 p/s (×10^6)
